# Source: ChEMBL document CHEMBL4265887 (Bioorg Med Chem Lett, 2018)
# Activity calls are given as the source filed them. No cut-off for these calls is given here.
# What was measured:
# HCT-116 [1] = assay: Cytotoxicity against human HCT116 cells assessed as reduction in cell viability after 48 hrs by MTT assay; type: functional, cell-based; conditions: HCT-116, 48 h
# HCT-15 = assay: Cytotoxicity against human HCT15 cells assessed as reduction in cell viability after 48 hrs by MTT assay; type: functional, cell-based; conditions: HCT-15, 48 h
# [2] = Solubility of the compound in phosphate buffer of pH 2 after 24 hrs by RP-HPLC analysis; type: physicochemical
# [3] = Solubility of the compound in phosphate buffer of pH 7.4 after 24 hrs by RP-HPLC analysis; type: physicochemical; conditions: for solubility at 24 h: phosphate buffer, pH 7.4
# HCT-116 [4] = assay: Inhibition of cytokinesis in human HCT116 cells at 1 uM after 24 hrs by propidium iodide/RNase staining-based flow cytometric analysis; type: functional, cell-based
# Aurora kinase A = molecular target: T1, Aurora kinase A (Homo sapiens, UniProt O14965); assay: Inhibition of recombinant Aurora A (unknown origin) using TAMRA-PKAtide as substrate after 30 mins by fluorescence polarization assay
# T1 sequence (O14965 whole entry): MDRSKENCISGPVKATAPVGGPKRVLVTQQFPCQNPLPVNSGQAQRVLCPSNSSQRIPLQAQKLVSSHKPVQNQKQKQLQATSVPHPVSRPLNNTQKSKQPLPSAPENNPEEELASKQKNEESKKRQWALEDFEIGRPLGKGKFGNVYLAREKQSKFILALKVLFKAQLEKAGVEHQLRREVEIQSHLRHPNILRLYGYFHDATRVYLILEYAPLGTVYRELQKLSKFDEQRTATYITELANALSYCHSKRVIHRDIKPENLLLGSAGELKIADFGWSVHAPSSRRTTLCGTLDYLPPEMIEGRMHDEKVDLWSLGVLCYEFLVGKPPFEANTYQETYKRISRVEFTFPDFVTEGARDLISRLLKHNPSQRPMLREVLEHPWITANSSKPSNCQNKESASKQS
# HCT-116 [5] = assay: Induction of apoptosis in human HCT116 cells at 1 uM after 72 hrs by Annexin V-FITC/propidium iodide staining-based flow cytometric analysis; type: functional, cell-based
# HCT-116 [6] = assay: Inhibition of cytokinesis in human HCT116 cells at 100 nM after 24 hrs by propidium iodide/RNase staining-based flow cytometric analysis; type: functional, cell-based
# Aurora kinase B [7] = molecular target: T2, Aurora kinase B (Homo sapiens, UniProt Q96GD4); assay: Inhibition of recombinant Aurora B (unknown origin) using TAMRA-PKAtide as substrate after 1 hr by fluorescence polarization assay
# HCT-116 [8] = assay: Induction of apoptosis in human HCT116 cells at 100 nM after 72 hrs by Annexin V-FITC staining-based flow cytometric analysis; type: functional, cell-based
# Aurora kinase B [9] = molecular target: T2, Aurora kinase B; assay: Inhibition of Aurora B phosphorylation at Thr232 residue in human HCT116 cells over 100 nM after 3 hrs by Western blot method; type: cell-based
# T2 sequence (Q96GD4 whole entry): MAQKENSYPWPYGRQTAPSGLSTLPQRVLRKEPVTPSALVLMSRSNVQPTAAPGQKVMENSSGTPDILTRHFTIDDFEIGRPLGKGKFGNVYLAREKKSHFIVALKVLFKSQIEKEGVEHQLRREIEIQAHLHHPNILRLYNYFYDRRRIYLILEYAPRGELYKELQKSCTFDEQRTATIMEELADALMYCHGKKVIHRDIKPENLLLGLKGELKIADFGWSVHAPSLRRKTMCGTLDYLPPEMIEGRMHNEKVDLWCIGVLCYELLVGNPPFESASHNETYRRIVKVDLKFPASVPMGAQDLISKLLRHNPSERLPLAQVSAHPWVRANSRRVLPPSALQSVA
SMILES,IC50 (HCT-116 [1]) [nM],IC50 (HCT-15) [nM],solubility at 24 h [2] [µM],solubility at 24 h [3] [µM],other results
CCCS(=O)(=O)Nc1cc(C(C)C)c2sc(NC(=O)C3CC3)c(C(N)=O)c2c1,6200,,,,
CCCCS(=O)(=O)Nc1cc(C(C)C)c2sc(NC(=O)NC)c(C(N)=O)c2c1,950,4040,4.3,4.6,
CNC(=O)Nc1sc2c(C(C)C)cc(NS(=O)(=O)c3ccccc3C)cc2c1C(N)=O,1770,,,,
CNC(=O)Nc1sc2c(C(C)C)cc(NS(=O)(=O)c3cccc(C)c3)cc2c1C(N)=O,470,1680,2.6,3.6,Cytokinesis inhibition (active/inactive call) (HCT-116 [4]): Active; IC50 (Aurora kinase A): 95 nM; Activity (HCT-116 [5]): Active; Cytokinesis inhibition (active/inactive call) (HCT-116 [6]): Active; IC50 (Aurora kinase B [7]): 46 nM; Activity (HCT-116 [8]): Active
CNC(=O)Nc1sc2c(C(C)C)cc(NS(=O)(=O)c3ccc(C)s3)cc2c1C(N)=O,2330,4100,,,
CCCNS(=O)(=O)Nc1cc(C(C)C)c2sc(NC(=O)NC)c(C(N)=O)c2c1,410,4710,,,Cytokinesis inhibition (active/inactive call) (HCT-116 [4]): Active; IC50 (Aurora kinase A): 21 nM; Activity (HCT-116 [5]): inactive; Cytokinesis inhibition (active/inactive call) (HCT-116 [6]): Active; IC50 (Aurora kinase B [7]): 11 nM; Activity (HCT-116 [8]): inactive
Cc1cc(Nc2cc(N3CCN(C)CC3)nc(Sc3ccc(NC(=O)C4CC4)cc3)n2)[nH]n1 [TOZASERTIB],,,120,,"solubility ([3]; buffer, pH 7.4, 24 h): 120 µM"
CC(C)c1cc(NS(=O)(=O)c2cccs2)cc2c(C(N)=O)c(NC(=O)C3CC3)sc12,4580,,,,
CCS(=O)(=O)Nc1cc(C(C)C)c2sc(NC(=O)C3CC3)c(C(N)=O)c2c1,2360,,,,
CCS(=O)(=O)Nc1cc(C(C)C)c2sc(NC(=O)NC)c(C(N)=O)c2c1,600,4980,11.4,13.6,Cytokinesis inhibition (active/inactive call) (HCT-116 [4]): Active; IC50 (Aurora kinase A): 24 nM; Activity (HCT-116 [5]): inactive; Cytokinesis inhibition (active/inactive call) (HCT-116 [6]): Active; IC50 (Aurora kinase B [7]): 38 nM; Activity (HCT-116 [8]): inactive
CNC(=O)Nc1sc2c(C3CC3)cc(NS(=O)(=O)c3ccn(C)n3)cc2c1C(N)=O,1190,,3.7,4.8,
CC(C)c1cc(NS(C)(=O)=O)cc2c(C(N)=O)c(NC(=O)C3CC3)sc12,1390,,,,
CC(C)c1cc(NS(=O)(=O)C2CCCCC2)cc2c(C(N)=O)c(NC(=O)C3CC3)sc12,9980,,,,
CNC(=O)Nc1sc2c(C(C)C)cc(NS(C)(=O)=O)cc2c1C(N)=O,1470,4180,,,
CNC(=O)Nc1sc2c(C)cc(NS(=O)(=O)c3cccs3)cc2c1C(N)=O,790,2190,5.3,12.8,
CNC(=O)Nc1sc2c(C3CC3)cc(NS(=O)(=O)c3cccs3)cc2c1C(N)=O,1530,,,1.1,
O=C(O)c1ccc(Nc2ncc3c(n2)-c2ccc(Cl)cc2C(c2c(F)cccc2F)=NC3)cc1 [MLN-8054],850,,5.8,98.2,inhibition (Aurora kinase B [9]): Active; Activity (HCT-116 [5]): inactive; Activity (HCT-116 [8]): inactive

SMILES,IC50 (HCT-116 [1]) [nM],IC50 (HCT-15) [nM],solubility at 24 h [2] [µM],solubility at 24 h [3] [µM],other results
CNC(=O)Nc1sc2c(C)cc(NS(=O)(=O)c3ccc(C)s3)cc2c1C(N)=O,2360,,,,
CNC(=O)Nc1sc2c(C(C)C)cc(NS(=O)(=O)c3ccccc3Cl)cc2c1C(N)=O,3410,,,,
CNC(=O)Nc1sc2c(C(C)C)cc(NS(=O)(=O)c3ccc(Cl)cc3)cc2c1C(N)=O,7000,,,,
CNC(=O)Nc1sc2c(C(C)C)cc(NS(=O)(=O)c3ccn(C)n3)cc2c1C(N)=O,560,6130,4.2,6.2,Cytokinesis inhibition (active/inactive call) (HCT-116 [4]): Active; IC50 (Aurora kinase A): 5 nM; Activity (HCT-116 [5]): Active; Cytokinesis inhibition (active/inactive call) (HCT-116 [6]): Active; IC50 (Aurora kinase B [7]): 17 nM; Activity (HCT-116 [8]): Active
CNC(=O)Nc1sc2c(C(C)C)cc(NS(=O)(=O)c3cc(C)cs3)cc2c1C(N)=O,340,1680,1.6,1.4,Cytokinesis inhibition (active/inactive call) (HCT-116 [4]): Active; IC50 (Aurora kinase A): 80 nM; Activity (HCT-116 [5]): Active; Cytokinesis inhibition (active/inactive call) (HCT-116 [6]): Active; IC50 (Aurora kinase B [7]): 48 nM; Activity (HCT-116 [8]): Active
CCCS(=O)(=O)Nc1cc(C(C)C)c2sc(NC(=O)NC)c(C(N)=O)c2c1,770,4440,2.8,3,
CC(C)c1cc(NS(=O)(=O)c2ccn(C)n2)cc2c(C(N)=O)c(NC(=O)C3CC3)sc12,760,1260,,,
CNC(=O)Nc1sc2c(C(C)C)cc(NS(=O)(=O)c3ccco3)cc2c1C(N)=O,1300,,3.3,6.7,
CC(C)c1cc(NS(=O)(=O)c2ccccc2)cc2c(C(N)=O)c(NC(=O)C3CC3)sc12,1390,,,,IC50 (Aurora kinase A): 827 nM; IC50 (Aurora kinase B [7]): 417 nM
CNC(=O)Nc1sc2c(C(C)C)cc(NS(=O)(=O)c3ccc(C)cc3)cc2c1C(N)=O,3800,,,,
Cc1cc(Nc2cc(N3CCN(C)CC3)nc(Sc3ccc(NC(=O)C4CC4)cc3)n2)n[nH]1 [TOZASERTIB],450,1230,,,Cytokinesis inhibition (active/inactive call) (HCT-116 [4]): Active; Cytokinesis inhibition (active/inactive call) (HCT-116 [6]): Active
CNC(=O)Nc1sc2c(C(C)C)cc(NS(=O)(=O)c3cccc(Cl)c3)cc2c1C(N)=O,1020,5660,,,
Cc1cccc(S(=O)(=O)Nc2cc(C(C)C)c3sc(NC(=O)C4CC4)c(C(N)=O)c3c2)c1,9010,,,,
CNC(=O)Nc1sc2c(C(C)C)cc(NS(=O)(=O)C(C)C)cc2c1C(N)=O,2580,8660,,,
CNC(=O)Nc1sc2c(C)cc(NS(=O)(=O)c3ccn(C)n3)cc2c1C(N)=O,9780,> 10000,,,
CNC(=O)Nc1sc2c(C)cc(NS(=O)(=O)c3ccco3)cc2c1C(N)=O,950,1510,1.1,3.9,
CNC(=O)Nc1sc2c(C(C)C)cc(NS(=O)(=O)c3ccccc3)cc2c1C(N)=O,310,890,1.3,1.7,Cytokinesis inhibition (active/inactive call) (HCT-116 [4]): Active; IC50 (Aurora kinase A): 37 nM; Activity (HCT-116 [5]): Active; Cytokinesis inhibition (active/inactive call) (HCT-116 [6]): Active; IC50 (Aurora kinase B [7]): 35 nM; Activity (HCT-116 [8]): Active
